{"source": "patent US20250134889A1", "about": "“TARGETING IRE1 KINASE AND FMRP FOR PROPHYLAXIS, MANAGEMENT AND TREATMENT OF ATHEROSCLEROSIS” (CEDARS-SINAI MEDICAL CENTER, priority 2022, published 2025)", "tested_on": "PM", "experiment": "In vivo efferocytosis", "design": "species or system mouse", "details": "C57BL/6, AMG-18 30 mg/kg 8 hours, CFSE-labeled ACs i.p. 1.5 hours", "text": "FIGS. 3A-3G depict that FMRP-deficiency increases efferocytosis in vivo. (For all images scale bar=50 μm; Red: Macrophages, Green: AC/AC-1, Violet: AC-2. Data are mean±SEM. Unpaired t-test with Welch's correction. * P≤0.05, ** P≤0.01, *** P≤0.001.) • 3A-3E. In vitro and in vivo efferocytosis experiments, where percentage of macrophages F4/80^+ (red) that ingested apoptotic cells (AC) labeled with carboxyfluorescein succinimidyl ester (CFSE)^+ (green) were reported as % efferocytosis. • 3A. BMDMs were transfected with Fmr1- or control-siRNA and incubated CFSE-labeled AC for the indicated hours (n=4). • 3B. Fmr1^+/+ and Fmr1^−/− BMDMs were treated with PA (500 μM) for 6 hours and then incubated with CFSE-labeled ACs for 4 hours (n=4). • 3C. Fmr1^+/+ and Fmr1^−/− mice were fed WD (16 weeks) and injected intraperitoneally with CFSE-labeled AC (1.5 hours), followed by PM elicitation (n=4-5). • 3D. BMDM were pre-treated either with vehicle (DMSO) or AMG-18 (5 μM) for 1 hour then incubated with CFSE-labeled ACs for 4 hours (n=4). • 3E. […] In vitro continuous efferocytosis experiments, where macrophages were stained for F4/80^+ (red), AC were labeled with CFSE (AC-1; green) or Violet (AC2; violet). % continuous efferocytosis was determined by the ratio of F4/80^+, CFSE^+ and Violet^+ (triple positive) cells to total F4/80^+/+ and CFSE^+ (double positive) cells. • 3F. […]"}
{"smiles": "Cc1ccc2c(NS(=O)(=O)c3ccccc3Cl)cccc2c1Oc1ncccc1-c1ccnc(N[C@H]2CCCNC2)n1", "note": "[AMG-18]", "values": [{"measurement": "efferocytosis of ACs by PM in vivo", "value": "induced"}]}
